Measured values from publication PMC7765500, “Siderophore Scaffold as Carrier for Antifungal Peptides in Therapy of Aspergillus fumigatus Infections” (Journal of Fungi, 2020).
Converted amounts (≈) assume the structure as drawn. Where two headings read alike, the source gives them in different places. Values belong to the molecule of their own block, whether it stands above or below them. Square brackets hold non-standard residues; d marks the D form. Ends that are not written are not given here. Peptide text beside a SMILES is read from it.

Columns and labels:
[1] = system: A. fumigatus (ATCC 46645); type: cell-based, Aspergillus fumigatus
Experimental: (§1) Susceptibility tests were performed according to CLSI guidelines with slight modifications. In brief, 96-well plates (Greiner Bio-One GmbH) were prepared with 100 μL of 2 × AMM (Aspergillus minimal medium) or 0.2 × Potato Dextrose Broth (PDB) containing 3 × 10^4 spores of A. fumigatus (ATCC 46645) per well. An amount of 100μL antifungal, dissolved in water, was added to get a final concentration of 1 × AMM/0.1 × PDB medium and antifungal concentration ranging from 0.031–16 μg/mL.

[2] = system: A. fumigatus (ATCC 46645); type: cell-based, Aspergillus fumigatus; details: for Antifungal activity lacking up to: medium and time not given
Experimental: as §1

[3] = system: A. fumigatus mutant strain ΔsidA/ΔftrA; assay: Growth promotion assay; type: cell-based, Aspergillus fumigatus; details: 72 h, 37 °C; for Concentration of sporulation / Concentration of growth induction / utilization: iron-depleted AMM, 0.1–50 µM tested; for Growth promotion (in words): visually assessed
Text: To assess the capability of A. fumigatus to utilize the modified siderophores, a mutant strain (ΔsidA/ΔftrA) that lacks the genes sidA and ftrA was used. These mutations impair both siderophore-mediated iron acquisition and reductive iron assimilation, in other words, high-affinity iron acquisition. If the activity of externally supplied siderophore was still intact, similar growth to [Fe]TAFC should be observed, however, in the case of growth reduction, it cannot be distinguished from antifungal activity. Spores (10^4) were point inoculated on solid 0.5 mL of AMM [26] in 24-well plates containing increasing concentrations of iron labelled siderophore ranging from 0.1–50 μM. Plates were incubated for 72 h at 37 °C in a humidity chamber and visually assessed.

A. fumigatus = assay: Uptake assay of 68Ga-labelled conjugates in A. fumigatus; type: cell-based, Aspergillus fumigatus; details: iron-depleted AMM, 45 min, 37 °C
Experimental: Assays were performed as previously described. Briefly, uptake and competition assays were performed with A. fumigatus in iron-depleted and iron-replete Aspergillus minimal media (AMM), using a 96-well MultiScreen Filter Plates HTS (1 μm glass fiber filter, Merck Millipore, Darmstadt, Germany). Compounds were incubated for 45 min at 37 °C and filters measured in a gamma counter. Competition assays were performed in the same way except for pre-incubation with the iron-containing antifungal conjugates for 15 min, resulting in a competition at the MirB transporter to show specific binding to MirB.

[4] = type: physicochemical; details: pH 7.4
Experimental: Aliquots of 50 µL of ^68Ga-labelled conjugate (~5 µM) were added to 450 µL of phosphate-buffered saline pH 7.4 (PBS) and 500 µL of Octanol into a 1.5 mL Eppendorf tube. The mixture was vigorously shaken for 20 min at 1400 rpm in a standard vortex (MS 3, IKA, Staufen, Germany) and hereafter, 200 µL of each phase removed and measured in a gamma counter (2480 automatic gamma counter Wizard2 3’’, Perkin Elmer, Waltham, MA, USA) LogD was calculated as the ratio of octanol/water phase using Excel. (n = 3, six technical replicates)

[5] = cited from earlier work

MIC / growth inhibition ([1]; 0.1 × PDB, incubation time not given): 8 µg/mL (≈ 8.07 µM)
Molecule: CC(=O)N[C@H](CCCNC(=N)N)C(=O)N[C@H](CCCCN)C(=O)N[C@H](CCCCN)C(=O)N[C@H](Cc1c[nH]c2ccccc12)C(=O)N[C@H](Cc1ccccc1)C(=O)N[C@H](Cc1c[nH]c2ccccc12)C(N)=O [PAF26, Ac-dArg-dLys-dLys-dTrp-dPhe-dTrp-NH2, reference compound] (Ac-[dR][dK][dK][dW][dF][dW]-NH2)

MIC 24 h ([2]; AMM, 37 °C, 24 h): >16 µg/mL | MIC 48 h ([2]; AMM, 37 °C): >16 µg/mL | MIC 24 h ([2]; ATCC 46645, 24 h): >36.8 µM
Molecule: CC(=O)N[C@@H](CC(N)=O)C(=O)N[C@@H](CC(C)C)C(=O)N[C@H](Cc1ccccc1)C(=O)O [HOOC-NLF-Ac] (Ac-Asn-Leu-[dF]-OH)

Molecule: CC(=O)NC1CCCN(O)C(=O)/C=C(/C)CCOC(=O)C(NC(=O)[C@@H](Cc2ccccc2)NC(=O)[C@H](CC(C)C)NC(=O)[C@H](CC(N)=O)NC(C)=O)CCCN(O)C(=O)/C=C(/C)CCOC(=O)C(NC(C)=O)CCCN(O)C(=O)/C=C(/C)CCOC1=O (some centres unmarked) [[Fe]DAFC-NLF-Ac]
Concentration of sporulation [3]: 50 µM | MIC 24 h ([2]; AMM, 37 °C, 24 h): >16 µg/mL | MIC 48 h ([2]; AMM, 37 °C): >16 µg/mL | MIC 24 h ([2]; ATCC 46645, 24 h): >12.5 µM | Antifungal activity lacking up to [2]: > 16 µg/mL

Molecule: CC(=O)NC1CCCN(O)C(=O)/C=C(/C)CCOC(=O)C(NC(=O)CCC(=O)N[C@@H](CC(N)=O)C(=O)N[C@@H](CC(C)C)C(=O)N[C@H](Cc2ccccc2)C(=O)O)CCCN(O)C(=O)/C=C(/C)CCOC(=O)C(NC(C)=O)CCCN(O)C(=O)/C=C(/C)CCOC1=O (some centres unmarked) [[Fe]DAFC-succ-NLF]
Concentration of growth induction / utilization [3]: 10 to 50 µM | Growth promotion (in words) [3]: very low growth promotion | MIC 24 h ([2]; AMM, 37 °C, 24 h): >16 µg/mL | MIC 48 h ([2]; AMM, 37 °C): >16 µg/mL | MIC 24 h ([2]; ATCC 46645, 24 h): >12.0 µM | Antifungal activity lacking up to [2]: > 16 µg/mL

Molecule: CC(=O)N[C@@H]1CCCN(O)C(=O)/C=C(/C)CCOC(=O)[C@H](NC(=O)CCC(=O)N[C@@H](CCCNC(=N)N)C(=O)N[C@@H](CCCCN)C(=O)N[C@@H](CCCCN)C(=O)N[C@@H](Cc2c[nH]c3ccccc23)C(=O)N[C@@H](Cc2ccccc2)C(=O)N[C@@H](Cc2c[nH]c3ccccc23)C(N)=O)CCCN(O)C(=O)/C=C(/C)CCOC(=O)[C@H](NC(C)=O)CCCN(O)C(=O)/C=C(/C)CCOC1=O [[^68Ga]Ga-DAFC-L-PAF26, metal not drawn]
Uptake into A. fumigatus hyphae normalized to uptake of [68Ga]Ga-TAFC (A. fumigatus): 90% | logD [4]: -3.13 ± 0.02

MIC 24 h ([1]; 0.1 × PDB, 37 °C, 24 h): 16 µg/mL | MIC 48 h ([1]; 0.1 × PDB, 37 °C): >16 µg/mL | MIC 24 h ([2]; AMM, 37 °C, 24 h): >16 µg/mL | MIC 48 h ([2]; AMM, 37 °C): >16 µg/mL | MIC 24 h ([2]; ATCC 46645, 24 h): >16.1 µM
Molecule: CC(=O)N[C@H](CCCNC(=N)N)C(=O)N[C@H](CCCCN)C(=O)N[C@H](CCCCN)C(=O)N[C@H](Cc1c[nH]c2ccccc12)C(=O)N[C@H](Cc1ccccc1)C(=O)N[C@H](Cc1c[nH]c2ccccc12)C(N)=O [H2N-D-PAF26-Ac] (Ac-[dR][dK][dK][dW][dF][dW]-NH2)

Molecule: triacetylfusarinine C [[^68Ga]Ga-TAFC]
Biodistribution Blood 30 min ([5]; BALB/c mice, 30 min, blood): 1.60 ± 0.37 %ID/g | Biodistribution Femur 30 min ([5]; BALB/c mice, 30 min, femur): 0.51 ± 0.79 %ID/g | Biodistribution Heart 30 min ([5]; BALB/c mice, 30 min, heart): 0.67 ± 0.16 %ID/g | Biodistribution Intestine 30 min ([5]; BALB/c mice, 30 min, intestine): 1.71 ± 10.04 %ID/g | Biodistribution Kidneys 30 min ([5]; BALB/c mice, 30 min, kidneys): 5.51 ± 1.22 %ID/g | Biodistribution Liver 30 min ([5]; BALB/c mice, 30 min, liver): 0.70 ± 0.04 %ID/g | Biodistribution Lung 30 min ([5]; BALB/c mice, 30 min, lung): 1.54 ± 0.27 %ID/g | Biodistribution Muscle 30 min ([5]; BALB/c mice, 30 min, muscle): 0.52 ± 0.25 %ID/g | Biodistribution Pancreas 30 min ([5]; BALB/c mice, 30 min, pancreas): 0.42 ± 0.16 %ID/g | Biodistribution Spleen 30 min ([5]; BALB/c mice, 30 min, spleen): 0.38 ± 0.11 %ID/g | Biodistribution Stomach 30 min ([5]; BALB/c mice, 30 min, stomach): 0.77 ± 0.22 %ID/g | Biodistribution Blood 90 min ([5]; BALB/c mice, 90 min, blood): 0.06 ± 0.04 %ID/g | Biodistribution Femur 90 min ([5]; BALB/c mice, 90 min, femur): 0.15 ± 0.20 %ID/g | Biodistribution Heart 90 min ([5]; BALB/c mice, 90 min, heart): 0.03 ± 0.01 %ID/g | Biodistribution Intestine 90 min ([5]; BALB/c mice, 90 min, intestine): 1.03 ± 0.26 %ID/g | Biodistribution Kidneys 90 min ([5]; BALB/c mice, 90 min, kidneys): 1.27 ± 0.39 %ID/g | Biodistribution Liver 90 min ([5]; BALB/c mice, 90 min, liver): 0.15 ± 0.09 %ID/g | Biodistribution Lung 90 min ([5]; BALB/c mice, 90 min, lung): 0.10 ± 0.03 %ID/g | Biodistribution Muscle 90 min ([5]; BALB/c mice, 90 min, muscle): 0.03 ± 0.01 %ID/g | Biodistribution Pancreas 90 min ([5]; BALB/c mice, 90 min, pancreas): 0.04 ± 0.01 %ID/g | Biodistribution Spleen 90 min ([5]; BALB/c mice, 90 min, spleen): 0.05 ± 0.02 %ID/g | Biodistribution Stomach 90 min ([5]; BALB/c mice, 90 min, stomach): 0.06 ± 0.02 %ID/g | Metabolites on excretion through the urinary tract (in words) [5]: no metabolites detected

Molecule: CC(=O)NC1CCCN(O)C(=O)/C=C(/C)CCOC(=O)C(NC(=O)CCC(=O)N[C@H](CCCNC(=N)N)C(=O)N[C@H](CCCCN)C(=O)N[C@H](CCCCN)C(=O)N[C@H](Cc2c[nH]c3ccccc23)C(=O)N[C@H](Cc2ccccc2)C(=O)N[C@H](Cc2c[nH]c3ccccc23)C(N)=O)CCCN(O)C(=O)/C=C(/C)CCOC(=O)C(NC(C)=O)CCCN(O)C(=O)/C=C(/C)CCOC1=O (stereo partly drawn) [[Fe]DAFC-D-PAF26]
MIC 24 h ([1]; 0.1 × PDB, 37 °C, 24 h): >16 µg/mL | MIC 48 h ([1]; 0.1 × PDB, 37 °C): >16 µg/mL | MIC 24 h ([1]; ATCC 46645, 24 h): >8.4 µM | Growth promotion (in words) [3]: low hyphal growth without sporulation | MIC 24 h ([2]; AMM, 37 °C, 24 h): >16 µg/mL | MIC 48 h ([2]; AMM, 37 °C): >16 µg/mL | MIC 24 h ([2]; ATCC 46645, 24 h): >8.4 µM

Molecule: CC(=O)NC1CCCN(O)C(=O)/C=C(/C)CCOC(=O)C(NC(=O)CCC(=O)N[C@@H](CCCNC(=N)N)C(=O)N[C@@H](CCCCN)C(=O)N[C@@H](CCCCN)C(=O)N[C@@H](Cc2c[nH]c3ccccc23)C(=O)N[C@@H](Cc2ccccc2)C(=O)N[C@@H](Cc2c[nH]c3ccccc23)C(N)=O)CCCN(O)C(=O)/C=C(/C)CCOC(=O)C(NC(C)=O)CCCN(O)C(=O)/C=C(/C)CCOC1=O (stereo partly drawn) [[Fe]DAFC-L-PAF26]
Growth promotion (in words) [3]: low hyphal growth without sporulation | MIC 24 h ([2]; AMM, 37 °C, 24 h): >16 µg/mL | MIC 48 h ([2]; AMM, 37 °C): >16 µg/mL | MIC 24 h ([2]; ATCC 46645, 24 h): >8.4 µM

Molecule: triacetylfusarinine C [[Fe]TAFC, reference compound]
Concentration of growth induction / utilization [3]: 0.1 µM | Concentration of sporulation [3]: 10 µM

Molecule: H-Asn-Leu-[dF]-OH [NLF]
Antifungal activity (in words) ([2]; AMM, 0.031–16 µg/mL tested): lacked antifungal potential

MIC 24 h ([2]; AMM, 37 °C, 24 h): >16 µg/mL | MIC 48 h ([2]; AMM, 37 °C): >16 µg/mL | MIC 24 h ([2]; ATCC 46645, 24 h): >16.8 µM
Molecule: RKKWFW [HOOC-L-PAF26-NH2]
